The melting point is the temperature, or range, at which the solid turns liquid.

The record followed here is patent publication US11045562B2, “Radiolabelled mGluR2/3 PET ligands” (Janssen Pharmaceutica NV, priority 2015, dated 2021).

On to `C[C@H]1CN(c2ccc(C(F)(F)F)c(CF)c2)C(=O)c2c(NC(=O)c3cccnc3N)cnn21` [[^19F]-1], for which the melting point is 150.62 °C.
